Laboratory results published in ChEMBL document CHEMBL3352285, “In vitro anti-inflammatory effects of diterpenoids and sesquiterpenoids from traditional Chinese medicine Siegesbeckia pubescens” (Bioorg Med Chem Lett, 2014).
Converted amounts (≈) assume the structure as drawn.

Assays:
Neutrophil [1] = assay: Inhibition of FMLP/CB-induced superoxide anion generation in human neutrophils at 10 ug/ml by ferricytochrome c reduction method; assay type: functional
Neutrophil [2] = assay: Inhibition of FMLP/CB-induced superoxide anion generation in human neutrophils by ferricytochrome c reduction method; assay type: functional, cell-based
Neutrophil [3] = assay: Inhibition of FMLP/CB-induced elastase release in human neutrophils at 10 ug/ml after 5 mins by spectrophotometry; assay type: functional
Neutrophil [4] = assay: Inhibition of FMLP/CB-induced elastase release in human neutrophils after 5 mins by spectrophotometry; assay type: functional, cell-based
[5] = Cytotoxicity against human neutrophils at 10 ug/ml after 15 mins by LDH release assay; assay type: cell-based; details: neutrophil, 0.25 h
RAW264.7 = assay: Inhibition of NO production in LPS/IFN-gamma activated mouse RAW264.7 cells after 24 hrs by Griess assay; assay type: functional, cell-based
[6] = Mus musculus, RAW264.7, 24 h, read-out: IC50

| Structure (SMILES) | IC50 (Neutrophil [2]) [µg/mL] | IC50 (Neutrophil [4]) [µg/mL] | IC50 (RAW264.7; raw264.7) | IC50 (RAW264.7; [6]) [µM] | inhibition at 10 µg/mL (Neutrophil [1]) [%] | inhibition at 10 µg/mL (Neutrophil [3]) [%] | Activity [5] |
| --- | --- | --- | --- | --- | --- | --- | --- |
| CC1=CC(=O)CC(C)(C)[C@@]1(O)/C=C/C(C)O (stereo partly drawn) | > 10 | > 10 | Not Active |  | 3.57 | 3.42 |  |
| CC1(C)C[C@H]2[C@H]1CC[C@@]1(C)C[C@]2(O)CC[C@@H]1O | > 10 | > 10 | Not Active |  | 10.2 | 5.93 |  |
| C=C1C(=O)O[C@@H]2C[C@]3(C)[C@@H](CCC(C)=O)[C@@H]3C[C@H]12 | > 10 | > 10 |  | 6.4 | 41.2 | 11.2 |  |
| C=C1C(=O)O[C@@H]2C[C@]3(C)[C@@H](CCC(C)O)[C@@H]3C[C@H]12 (stereo partly drawn) | > 10 | > 10 |  | 18.9 | 11.6 | 39 |  |
| C=C(C)C(=O)O[C@H]1[C@H]2C(=C)C(=O)O[C@@H]2/C=C(\CO)CC/C=C(/C=O)[C@H]1O | > 10 | > 10 | Not Active |  | 9.01 | 20.8 |  |
| C=C(C)C(=O)O[C@H]1[C@H]2C(=C)C(=O)O[C@@H]2/C=C(\CO)CC/C=C(/C=O)[C@H]1OCC | 6.46 (≈ 16.5 µM) | > 10 |  | 6.8 | 72.4 | 22.3 | Non-toxic |
| CC(=O)OC[C@@]1(C(=O)O)CCC[C@@]2(C)[C@@H]3CC[C@H]4C[C@@]3(CC[C@H]12)C[C@H]4COC(=O)C(C)C | > 10 | 3.64 (≈ 8.11 µM) |  |  | 35.2 | 77.8 | Non-toxic |
| CC(=O)OC[C@@]1(C(=O)O)CCC[C@@]2(C)[C@@H]3CC[C@H]4C[C@@]3(CC[C@H]12)C[C@@]4(O)COC(=O)C(C)C | > 10 | 6.82 (≈ 14.7 µM) |  |  | 46.7 | 60.4 | Non-toxic |
| O=c1cc(N2CCOCC2)oc2c(-c3ccccc3)cccc12 [LY-294002] | 0.4 (≈ 1.3 µM) | 0.92 (≈ 2.99 µM) |  |  |  |  |  |
| C=C1C(=O)O[C@H]2C[C@@H](C)[C@@H]3CC[C@H](O)[C@@]3(C)C[C@H]12 [PSEUDOGUAIANOLIDE] | > 10 | > 10 |  | 14.9 | 17 | 46.9 |  |

Further lines, with some results ahead:

| IC50 (Neutrophil [2]) [µg/mL] | IC50 (Neutrophil [4]) [µg/mL] | IC50 (RAW264.7; raw264.7) | IC50 (RAW264.7; [6]) [µM] | Structure (SMILES) | inhibition at 10 µg/mL (Neutrophil [1]) [%] | inhibition at 10 µg/mL (Neutrophil [3]) [%] | Activity [5] |
| --- | --- | --- | --- | --- | --- | --- | --- |
| 5.22 (≈ 15.6 µM) | > 10 |  |  | COC(=O)[C@]1(C)CCC[C@@]2(C)[C@@H]3CC[C@@H]4C[C@@]3(CC[C@@H]21)C[C@@H]4CO | 90.7 | 27.7 | Toxic |
| > 10 | > 10 |  |  | CC1(C)[C@H](O)CC[C@@]2(C)[C@@H]3CC[C@](C)(C(O)CO)C=C3CC[C@H]12 (stereo partly drawn) | 35.8 | 21.9 |  |
| > 10 | > 10 |  |  | C[C@]1(CO)[C@H]2CCC3=C[C@@](C)(C(O)CO)CC[C@H]3[C@]2(C)CC[C@H]1O (stereo partly drawn) | 17.8 | -0.74 |  |
| > 10 | > 10 |  |  | C[C@@]1(CO)C[C@@H](O)C[C@@]2(C)[C@@H]3CC[C@](C)(C(O)CO)C=C3CC[C@H]12 (stereo partly drawn) | 7.88 | 6.78 |  |
| > 10 | > 10 |  |  | C[C@@]1(CO)CC(=O)C[C@@]2(C)[C@@H]3CC[C@](C)(C(O)CO)C=C3CC[C@H]12 (stereo partly drawn) | 10.2 | -0.75 |  |
| > 10 | > 10 |  |  | C[C@@]12C[C@H](O)C[C@@](C)(C(=O)O)[C@H]1CCC1=C[C@@](C)(C(O)CO)CC[C@H]12 (stereo partly drawn) | 5.18 | 7.65 |  |
| > 10 | > 10 |  |  | CC1(C)[C@H]2CCC3=C[C@@](C)(C(O)CO)CC[C@H]3[C@]2(C)CC[C@H]1O[C@@H]1O[C@H](CO)[C@@H](O)[C@H](O)[C@H]1O (stereo partly drawn) | 5.86 | 5.93 |  |
| > 10 | > 10 |  |  | CC(=O)OCC(O)[C@]1(C)C=C2CC[C@@H]3C(C)(C)[C@H](O[C@@H]4O[C@H](CO)[C@@H](O)[C@H](O)[C@H]4O)CC[C@@]3(C)[C@@H]2CC1 (stereo partly drawn) | 8.87 | 4.44 |  |
| > 10 | > 10 |  |  | CC1(C)OCC([C@]2(C)C=C3CC[C@@H]4[C@](C)(CO)C[C@@H](O)C[C@@]4(C)[C@@H]3CC2)O1 (stereo partly drawn) | 38.4 | 21.8 |  |
| 3.72 (≈ 11.6 µM) | > 10 |  |  | C[C@@]12CCC[C@@](C)(C(=O)O)[C@H]1CC[C@]13C[C@H](CO)[C@@H](CC[C@H]12)C3 | 89.5 | 45.9 | Non-toxic |
| > 10 | > 10 |  |  | C[C@@]12CCC[C@@](CO)(C(=O)O)[C@H]1CC[C@]13C[C@@H](CO)[C@@H](CC[C@H]12)C3 | 7.81 | 15.7 |  |
| 5.59 (≈ 16.7 µM) | > 10 |  |  | C[C@@]12CCC[C@@](C)(C(=O)O)[C@H]1CC[C@@]13C[C@H](CC[C@H]12)[C@H](C(=O)O)C3 | 69.6 | 31.5 | Non-toxic |
| 6.74 (≈ 16.6 µM) | 4.73 (≈ 11.6 µM) |  |  | CC(C)C(=O)OC[C@@H]1C[C@@]23CC[C@@H]4[C@](CO)(C(=O)O)CCC[C@@]4(C)[C@@H]2CC[C@H]1C3 | 67 | 83.2 | Non-toxic |
| > 10 | > 10 |  |  | CC(=O)OC[C@@]1(C(=O)O)CCC[C@@]2(C)[C@@H]3CC[C@H]4C[C@@]3(CC[C@H]12)C[C@@]4(O)CO | 32.1 | 37 |  |
| 3.63 (≈ 10.8 µM) | 4.34 (≈ 12.9 µM) |  |  | C[C@@]12CCC[C@@](C)(C(=O)O)[C@H]1CC[C@@]13C[C@H](CC[C@H]12)[C@@](O)(CO)C3 | 89.2 | 70.8 | Non-toxic |
